# Values quoted from earlier work as cited in patent US11813301B2, “Topical composition with active compounds from Cannabis sativa and Calendula officinalis for reduction of skin lesions” (UAB Satimed, priority 2016, dated 2023).
# System: keratinocyte proliferation
# Details: cannabinoid receptor-independent manner
row,Compound,inhibition of keratinocyte proliferation
1,"C=C(C)[C@@H]1CCC(C)=C[C@H]1c1c(O)cc(CCCCC)cc1O [CBD, Cannabidiol]",low micromolar range
2,"CCCCCc1cc(O)c2c(c1)OC(C)(C)c1ccc(C)cc1-2 [CBN, Cannabinol]",low micromolar range
3,"CCCCCc1cc(O)c2c(c1)OC(C)(C)[C@@H]1CCC(C)=C[C@@H]21 [Preparation D9-THC, Δ9-tetrahydrocannabinol]",low micromolar range
